According to the supplement of paper PMC11962398:

Assays:
BI-2493 [1] = compound: T1, C[C@H]1CNCCN1c1nccc(-c2noc3c2CCC[C@@]32CCCc3sc(N)c(C#N)c32)n1 [BI-2493]; conditions: 5 days
Procedure: (§1)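 PRISM pooled barcoded cancer cell line viability screen (Broad Institute) with BI-2493 at 8 doses in threefold dilutions from 0.00457 to 10 µmol/L, 5-day treatment; curves fitted per cell line. IC50 is undefined (placeholder) for resistant lines. AUC is capped at 1, and sensitivity is reported as 1 − AUC.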

BI-2493 [2] = compound: T1, BI-2493; assay: 1 - AUC of viability dose-response curve (sensitivity) (fraction); higher = more sensitive; conditions: 5 days
Procedure: as §1

| Test System | IC50 of cell viability (BI-2493 [1]) [µM] | 1 - AUC of viability dose-response curve (BI-2493 [2]) |
| --- | --- | --- |
| NCIH2172_LUNG | 8.7 | 0.0555 |
| NCIH2228_LUNG | 7.89 | 0.0876 |
| NCIH2347_LUNG | 4.63 | 0.138 |
| NCIH2444_LUNG | 6.69 | 0.102 |
| NCIH2452_PLEURA | > 10 | 0.00394 |
| NCIN87_STOMACH | 9.6 | 0.00691 |
| NCO2_HAEMATOPOIETIC_AND_LYMPHOID_TISSUE | 4.33 | 0.117 |
| NIHOVCAR3_OVARY | 8.37 | 0.103 |
| NOMO1_HAEMATOPOIETIC_AND_LYMPHOID_TISSUE | 0.331 | 0.38 |
| NOZ_LIVER | 9.22 | 0.0154 |
| NP2_CENTRAL_NERVOUS_SYSTEM | 9.05 | 0.085 |
| NP3_CENTRAL_NERVOUS_SYSTEM | 8.21 | 0.0412 |
| NP5_CENTRAL_NERVOUS_SYSTEM | 3.54 | 0.108 |
| NUDHL1_HAEMATOPOIETIC_AND_LYMPHOID_TISSUE | 0.306 | 0.441 |
| NUGC3_STOMACH | 2.68 | 0.236 |
| NZOV9_OVARY | 8.42 | 0.155 |
| OACM51_OESOPHAGUS | 6.83 | 0.0865 |
| OAW42_OVARY | 5.86 | 0.104 |
| OC314_OVARY | 5.96 | 0.113 |

| Test System | IC50 of cell viability (BI-2493 [1]) [µM] | 1 - AUC of viability dose-response curve (BI-2493 [2]) |
| --- | --- | --- |
| OC316_OVARY | 5.73 | 0.113 |
| OCIAML2_HAEMATOPOIETIC_AND_LYMPHOID_TISSUE | 3 | 0.209 |
| OCIAML3_HAEMATOPOIETIC_AND_LYMPHOID_TISSUE | 2.15 | 0.23 |
| OCIC4P_OVARY | 6.47 | 0.115 |
| OCIC5X_OVARY | 9.57 | 0.0098 |
| OCILY3_HAEMATOPOIETIC_AND_LYMPHOID_TISSUE | 7.48 | 0.0575 |
| OCILY19_HAEMATOPOIETIC_AND_LYMPHOID_TISSUE | 3.56 | 0.19 |
| OCILY132_HAEMATOPOIETIC_AND_LYMPHOID_TISSUE | 7.21 | 0.0816 |
| OCIM1_HAEMATOPOIETIC_AND_LYMPHOID_TISSUE | 6.84 | 0.0683 |
| OCIP5X_OVARY | 9.58 | 0.00791 |
| OCUG1_BILIARY_TRACT | 4.77 | 0.132 |
| OE19_OESOPHAGUS | 4.24 | 0.168 |
| OE21_OESOPHAGUS | 3.82 | 0.112 |
| OE33_OESOPHAGUS | 8.75 | 0.041 |
| ONCODG1_OVARY | 8.36 | 0.0507 |
| ONDA9_CENTRAL_NERVOUS_SYSTEM | 5.1 | 0.0973 |
| ONS76_CENTRAL_NERVOUS_SYSTEM | 5.21 | 0.133 |
| OSC20_UPPER_AERODIGESTIVE_TRACT | 9.09 | 0.165 |
| OSRC2_KIDNEY | 4.48 | 0.0909 |
